Results reported in patent US20260306527A1, “PRMT INHIBITOR COMPOUNDS AND THE USES THEREOF” (Purdue Research Foundation, priority 2023, published 2026).
Entries after “also recorded” stand apart in the source; their conditions may differ.

Assays:
Type in all cases: biochemical
PRMT1 [1] = biological target: T1, PRMT1 (Homo sapiens, UniProt Q99873); assay: inhibition mechanism study on PRMT1, SAHH-coupled fluorescence; settings: role: inhibitor
T1 construct: made in house
Procedure: The inhibition mechanism of YD1290 was study on PRMT1 with the fluorescence-based SAHH-coupled assay. Varying concentrations of SAM (from 5 to 40 μM) with 4 μM fixed concentration of H4-21 or varying concentration of H4-21 (from 4 to 32 μM) with 5 μM fixed concentration of SAM were included in reactions at concentration of YD1290 ranging from 0.15 nM to 10 μM.
All the IC50 values were determined in triplicate. Fluorescence was monitored on a BMG CLARIOstar microplate reader with excitation 380 nm and emission 505 nm. Data were processed by using GraphPad Prism software 8.0.
To confirm the potent inhibition activities of YD1290 on type I PRMTs resulting from bisubstrate characteristics, its inhibition mechanism on PRMT1 was determined through the SAHH-coupled fluorescence-based assay.

PRMTs = assay: radioactivity assay, all tested PRMTs
Procedure: (§1) The selectivity of compounds YD1113 and YD1290 on PRMTs were performed by Reaction Biology Corp.
(§2) After validating the benzyl urea moiety as an unconventional homocysteine mimic of SAH for PRMTs, it was hypothesized that incorporating the benzyl urea moiety into the original pan PRMT inhibitor II757 would build a potent bisubstrate inhibitor. […] To enable a stable tri-substitution, the sulfur atom with a nitrogen atom was replaced. YD1290 was synthesized following the reported methods 9, 15 and tested in a radioactivity assay for PRMTs (FIG. 6b).

PRMT6 = PRMT6 (Homo sapiens, UniProt Q96LA8); assay: selectivity of YD1113/YD1290 on PRMT panel, PRMT6; settings: vs YD1113
Procedure: as §1
(§3) Next, the selectivity of YD1113 was investigated on a panel of PRMTs at 10 μM.
as §2

type I PRMTs = assay: inhibition of type I PRMTs (summary)
Procedure: as §1

G9a = G9a (Homo sapiens, UniProt Q96KQ7); assay: selectivity, SAHH-coupled assay G9a; settings: 100 μM
Procedure: (§4) A fluorescence-based SAHH-coupled assay was applied to study the effect of the compound on methyltransferase activity of NTMT1, SETD7, G9a, NNMT, tbPRMT7 and SAHH. For NTMT1, the assay was performed in a final well volume of 100 μL: 25 mM Tris (pH=7.5), 50 mM KCl, 0.01% Triton X-100, 5 μM.
(§5) SAHH, 0.1 μM NTMT1, 3 μM AdoMet, and 10 μM ThioGlo4. After incubation for 10 min with the inhibitor, reactions were initiated by the addition of 0.5 μM GPKRIA peptide, and the reaction was monitored for 15 min. For SETD7, the assay was performed in a final well volume of 100 μL: 25 mM potassium phosphate buffer (pH=7.6), 0.01% Triton X-100, 5 μM SAHH, 1 μM SETD7, 2 μM AdoMet, and 10 μM ThioGlo1. After incubation for 10 min with the inhibitor, reactions were initiated by the addition of 90 μM H3-21 peptide, and the reaction was monitored for 15 min. […] After incubation for 10 min with the inhibitor, reactions were initiated by the addition of 10 μM nicotinamide, and the reaction was monitored for 18 min. […] After incubation for 10 min with the inhibitor, reactions were initiated by the addition of 60 μM H4-21 peptide, and the reaction was monitored for 15 min. […]
(§6) All experiments were performed in duplicate. Fluorescence was monitored on a BMG CLARIOstar microplate reader with excitation at 380 nm and emission at 505 nm. […]

PRMT8 = PRMT8 (Homo sapiens, UniProt Q9NR22); assay: selectivity of YD1113/YD1290 on PRMT panel, PRMT8; settings: vs YD1113
Procedure: as §1, §3, §2

SETD7 = biological target: T2, SETD7 (Homo sapiens, UniProt Q8WTS6); assay: selectivity, SAHH-coupled assay SETD7; settings: 100 μM
T2 construct: H3-21 peptide as substrate
Procedure: as §4, §5, §6

SAHH = assay: selectivity, SAHH; settings: 100 μM
Procedure: The effect of the inhibitors on the coupled enzyme, SAHH, was also evaluated. The assay was performed in a final well volume of 100 μL: 25 mM Tris (pH=7.5), 50 mM KCl, 0.01% Triton X-100, 0.1 μM SAHH, and 15 μM ThioGlo1. After incubation for 10 min with the compound, 0.5 μM SAH was added to initiate the reactions.
All experiments were performed in duplicate. Fluorescence was monitored on a BMG CLARIOstar microplate reader with excitation at 380 nm and emission at 505 nm.
To examine the selectivity, the inhibition of YD1290 on four inhouse methyltransferases, including protein N-terminal methyltransferase 1 (NTMT1), nicotinamide N-methyltransferase (NNMT), and two protein lysine methyltransferases PKMT (G9a and SETD7) were tested.

NTMT1 = biological target: T3, NTMT1 (Homo sapiens, UniProt Q9BV86); assay: selectivity, SAHH-coupled assay NTMT1; settings: 100 μM
T3 construct: GPKRIA peptide as substrate
Procedure: as §4, §5, §6

PRMT4 = biological target: T4, PRMT4 (Homo sapiens, UniProt Q86X55); assay: selectivity of YD1113/YD1290 on PRMT panel, PRMT4
T4 sequence (Q86X55 1-608): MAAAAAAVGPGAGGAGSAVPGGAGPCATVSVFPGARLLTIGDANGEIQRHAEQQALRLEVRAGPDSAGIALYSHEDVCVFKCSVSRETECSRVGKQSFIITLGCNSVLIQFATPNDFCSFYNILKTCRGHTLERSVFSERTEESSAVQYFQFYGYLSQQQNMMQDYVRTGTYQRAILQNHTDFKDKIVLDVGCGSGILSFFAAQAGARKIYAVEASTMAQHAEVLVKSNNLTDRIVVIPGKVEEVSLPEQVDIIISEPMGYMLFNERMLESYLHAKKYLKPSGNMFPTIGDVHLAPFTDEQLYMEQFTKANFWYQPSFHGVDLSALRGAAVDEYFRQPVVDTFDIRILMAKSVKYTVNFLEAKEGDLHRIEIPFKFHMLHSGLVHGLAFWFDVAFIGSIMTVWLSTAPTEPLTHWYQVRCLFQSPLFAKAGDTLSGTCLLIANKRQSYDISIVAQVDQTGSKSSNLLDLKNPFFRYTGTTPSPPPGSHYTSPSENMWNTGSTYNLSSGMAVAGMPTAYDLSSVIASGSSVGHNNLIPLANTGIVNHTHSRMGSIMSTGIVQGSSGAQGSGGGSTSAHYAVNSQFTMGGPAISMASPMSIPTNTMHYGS
Procedure: as §1, §3, §2

PRMT3 = PRMT3 (Homo sapiens, UniProt O60678); assay: selectivity of YD1113/YD1290 on PRMT panel, PRMT3; settings: vs YD1113
Procedure: as §1, §3, §2

NNMT = biological target: T5, NNMT (Homo sapiens, UniProt P40261); assay: selectivity, SAHH-coupled assay NNMT; settings: 100 μM
T5 construct: nicotinamide as substrate
Procedure: as §4, §5, §6

PRMT1 [2] = biological target: T1, PRMT1; assay: selectivity of YD1113/YD1290 on PRMT panel, PRMT1; settings: vs YD1113
Procedure: as §1, §3, §2

T1 sequence (Q99873 whole entry, species assumed): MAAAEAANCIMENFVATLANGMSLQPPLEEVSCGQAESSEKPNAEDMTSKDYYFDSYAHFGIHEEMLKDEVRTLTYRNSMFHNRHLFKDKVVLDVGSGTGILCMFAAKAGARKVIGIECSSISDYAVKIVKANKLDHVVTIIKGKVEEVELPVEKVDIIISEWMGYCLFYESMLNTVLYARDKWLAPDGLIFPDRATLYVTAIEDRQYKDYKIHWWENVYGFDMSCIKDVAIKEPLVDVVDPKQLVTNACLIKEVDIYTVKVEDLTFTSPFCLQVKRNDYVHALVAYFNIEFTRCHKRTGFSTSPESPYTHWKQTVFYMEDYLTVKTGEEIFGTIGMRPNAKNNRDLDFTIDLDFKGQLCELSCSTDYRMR
PRMT6, sequence (Q96LA8 whole entry, species assumed): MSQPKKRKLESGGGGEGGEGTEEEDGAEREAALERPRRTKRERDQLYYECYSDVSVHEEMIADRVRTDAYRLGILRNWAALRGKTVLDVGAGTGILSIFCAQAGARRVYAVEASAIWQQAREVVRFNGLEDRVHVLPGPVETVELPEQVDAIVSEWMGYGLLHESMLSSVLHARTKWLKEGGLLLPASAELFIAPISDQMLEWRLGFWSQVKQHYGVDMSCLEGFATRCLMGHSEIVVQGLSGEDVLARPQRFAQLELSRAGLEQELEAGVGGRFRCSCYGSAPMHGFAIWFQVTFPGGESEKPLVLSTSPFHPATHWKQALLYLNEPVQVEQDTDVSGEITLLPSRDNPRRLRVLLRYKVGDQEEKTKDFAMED
PRMT8, sequence (Q9NR22 whole entry, species assumed): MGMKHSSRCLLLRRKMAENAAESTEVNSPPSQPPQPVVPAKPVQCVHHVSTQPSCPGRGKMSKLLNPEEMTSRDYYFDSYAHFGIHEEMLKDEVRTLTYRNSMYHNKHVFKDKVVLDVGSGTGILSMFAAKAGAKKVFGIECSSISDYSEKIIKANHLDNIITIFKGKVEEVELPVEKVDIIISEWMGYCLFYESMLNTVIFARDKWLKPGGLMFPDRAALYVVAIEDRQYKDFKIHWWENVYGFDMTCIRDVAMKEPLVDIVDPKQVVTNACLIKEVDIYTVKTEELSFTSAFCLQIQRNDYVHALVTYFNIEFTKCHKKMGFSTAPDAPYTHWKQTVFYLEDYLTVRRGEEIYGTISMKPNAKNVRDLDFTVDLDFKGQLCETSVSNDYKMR
T3 sequence (Q9BV86 whole entry): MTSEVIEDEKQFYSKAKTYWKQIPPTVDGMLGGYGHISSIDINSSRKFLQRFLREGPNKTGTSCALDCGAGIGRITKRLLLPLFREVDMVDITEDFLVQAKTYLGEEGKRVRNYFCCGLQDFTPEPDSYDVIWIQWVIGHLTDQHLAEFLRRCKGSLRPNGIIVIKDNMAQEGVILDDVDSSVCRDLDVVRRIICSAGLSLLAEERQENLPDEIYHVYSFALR
T5 sequence (P40261 whole entry): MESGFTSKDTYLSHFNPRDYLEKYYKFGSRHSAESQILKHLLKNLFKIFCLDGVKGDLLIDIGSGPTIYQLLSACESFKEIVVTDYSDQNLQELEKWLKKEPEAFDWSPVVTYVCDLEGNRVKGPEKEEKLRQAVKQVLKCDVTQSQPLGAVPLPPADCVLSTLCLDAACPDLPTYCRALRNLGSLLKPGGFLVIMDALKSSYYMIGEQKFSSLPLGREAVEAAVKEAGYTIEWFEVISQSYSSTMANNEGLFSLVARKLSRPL
G9a, sequence (Q96KQ7 whole entry): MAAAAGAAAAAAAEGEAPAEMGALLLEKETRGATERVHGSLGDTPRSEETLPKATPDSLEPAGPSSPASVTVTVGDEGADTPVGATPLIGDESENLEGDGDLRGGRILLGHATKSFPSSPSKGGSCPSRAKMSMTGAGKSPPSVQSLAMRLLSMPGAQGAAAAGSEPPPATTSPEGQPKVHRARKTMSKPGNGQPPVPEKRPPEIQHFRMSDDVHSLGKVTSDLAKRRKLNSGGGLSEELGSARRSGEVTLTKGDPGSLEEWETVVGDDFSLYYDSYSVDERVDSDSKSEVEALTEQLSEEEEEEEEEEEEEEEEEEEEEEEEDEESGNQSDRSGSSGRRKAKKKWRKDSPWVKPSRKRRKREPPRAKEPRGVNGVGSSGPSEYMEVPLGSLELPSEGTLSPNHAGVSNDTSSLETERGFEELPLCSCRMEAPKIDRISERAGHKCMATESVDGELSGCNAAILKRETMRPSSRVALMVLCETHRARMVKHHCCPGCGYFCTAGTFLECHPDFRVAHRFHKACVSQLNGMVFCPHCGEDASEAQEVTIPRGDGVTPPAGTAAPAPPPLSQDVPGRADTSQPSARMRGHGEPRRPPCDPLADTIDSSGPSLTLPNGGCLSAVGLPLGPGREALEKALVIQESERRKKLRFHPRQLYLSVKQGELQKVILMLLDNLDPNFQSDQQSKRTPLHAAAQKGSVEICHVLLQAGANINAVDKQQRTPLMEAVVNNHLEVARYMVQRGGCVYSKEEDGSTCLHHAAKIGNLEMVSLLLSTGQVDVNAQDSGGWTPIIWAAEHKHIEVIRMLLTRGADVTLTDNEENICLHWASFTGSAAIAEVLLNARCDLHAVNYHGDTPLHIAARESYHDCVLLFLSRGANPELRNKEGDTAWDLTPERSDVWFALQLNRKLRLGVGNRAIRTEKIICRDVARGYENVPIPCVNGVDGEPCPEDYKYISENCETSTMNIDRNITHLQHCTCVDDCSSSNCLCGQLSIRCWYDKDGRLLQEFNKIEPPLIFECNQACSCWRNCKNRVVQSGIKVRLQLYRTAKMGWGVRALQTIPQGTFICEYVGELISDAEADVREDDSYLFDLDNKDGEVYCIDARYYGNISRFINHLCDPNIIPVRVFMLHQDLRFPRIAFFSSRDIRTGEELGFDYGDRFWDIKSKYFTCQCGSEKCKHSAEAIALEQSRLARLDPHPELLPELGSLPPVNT
PRMT3, sequence (O60678 whole entry, species assumed): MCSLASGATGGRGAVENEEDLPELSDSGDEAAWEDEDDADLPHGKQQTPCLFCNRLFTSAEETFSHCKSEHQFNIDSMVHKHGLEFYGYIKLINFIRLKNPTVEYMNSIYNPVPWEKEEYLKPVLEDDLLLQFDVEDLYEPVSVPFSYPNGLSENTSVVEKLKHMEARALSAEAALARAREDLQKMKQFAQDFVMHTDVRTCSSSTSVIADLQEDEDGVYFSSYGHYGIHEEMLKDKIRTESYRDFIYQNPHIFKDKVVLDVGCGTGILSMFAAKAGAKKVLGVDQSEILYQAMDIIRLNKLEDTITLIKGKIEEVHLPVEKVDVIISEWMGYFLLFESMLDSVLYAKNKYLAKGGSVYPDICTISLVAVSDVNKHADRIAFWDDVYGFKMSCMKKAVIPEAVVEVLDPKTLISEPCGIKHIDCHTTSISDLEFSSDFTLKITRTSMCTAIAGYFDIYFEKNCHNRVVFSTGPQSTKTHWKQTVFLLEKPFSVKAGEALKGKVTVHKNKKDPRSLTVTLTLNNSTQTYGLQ
T2 sequence (Q8WTS6 whole entry): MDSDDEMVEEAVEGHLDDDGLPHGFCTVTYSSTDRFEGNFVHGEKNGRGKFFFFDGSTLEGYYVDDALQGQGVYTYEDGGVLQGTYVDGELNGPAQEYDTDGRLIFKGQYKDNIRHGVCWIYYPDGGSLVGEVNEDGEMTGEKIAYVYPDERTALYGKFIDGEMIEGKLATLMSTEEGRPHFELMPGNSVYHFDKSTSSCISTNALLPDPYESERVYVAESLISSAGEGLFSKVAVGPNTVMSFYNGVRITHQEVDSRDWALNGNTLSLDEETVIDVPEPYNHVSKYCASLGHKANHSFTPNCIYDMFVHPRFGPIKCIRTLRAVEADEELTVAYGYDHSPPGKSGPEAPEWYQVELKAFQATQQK

N=C(NCCCN(CCNC(=O)NCc1ccccc1)C[C@H]1O[C@@H](n2cnc3c(N)ncnc32)[C@H](O)[C@@H]1O)Nc1cccc(Br)c1 [YD1290]
inhibition mechanism vs peptide substrate, PRMT1 (PRMT1 [1]; H4-21 4 to 32 μM, SAM 5 μM fixed): slightly increased when the ratio of peptide/Km increased; also recorded: peptide-site competitive inhibitor of PRMT1 | inhibition mechanism vs SAM, PRMT1 (PRMT1 [1]; SAM 5 to 40 μM, H4-21 4 μM fixed): SAM-site competitive inhibitor of PRMT1 | potency to all tested PRMTs (PRMTs): demonstrated potency to all tested PRMTs | fold potency to PRMT6 compared to YD1113 (PRMT6): > 80 fold | IC50 (type I PRMTs): < 5 nM | inhibition of G9a (G9a): did not display any significant inhibition | fold potency to PRMT8 compared to YD1113 (PRMT8): > 80 fold | inhibition of SETD7 (SETD7): did not display any significant inhibition | inhibition of SAHH (SAHH): did not display any significant inhibition | inhibition of NTMT1 (NTMT1): did not display any significant inhibition | PRMT4 activity (PRMT4; 1.5 nM, radioactivity assay): completely abolished PRMT4 activity | fold potency to PRMT4 compared to YD1113 (PRMT4; vs YD1113): > 80 fold | fold potency to PRMT3 compared to YD1113 (PRMT3): > 80 fold | inhibition of NNMT (NNMT): did not display any significant inhibition | fold potency to PRMT1 compared to YD1113 (PRMT1 [2]): > 80 fold
